Several values for one entry are separate records, joined by “and”; a condition that tells them apart may be missing. Identical values can stand only once.
Target: T1, Polyphenol oxidase 2 (Agaricus bisporus, UniProt O42713)
T1 sequence (O42713 whole entry): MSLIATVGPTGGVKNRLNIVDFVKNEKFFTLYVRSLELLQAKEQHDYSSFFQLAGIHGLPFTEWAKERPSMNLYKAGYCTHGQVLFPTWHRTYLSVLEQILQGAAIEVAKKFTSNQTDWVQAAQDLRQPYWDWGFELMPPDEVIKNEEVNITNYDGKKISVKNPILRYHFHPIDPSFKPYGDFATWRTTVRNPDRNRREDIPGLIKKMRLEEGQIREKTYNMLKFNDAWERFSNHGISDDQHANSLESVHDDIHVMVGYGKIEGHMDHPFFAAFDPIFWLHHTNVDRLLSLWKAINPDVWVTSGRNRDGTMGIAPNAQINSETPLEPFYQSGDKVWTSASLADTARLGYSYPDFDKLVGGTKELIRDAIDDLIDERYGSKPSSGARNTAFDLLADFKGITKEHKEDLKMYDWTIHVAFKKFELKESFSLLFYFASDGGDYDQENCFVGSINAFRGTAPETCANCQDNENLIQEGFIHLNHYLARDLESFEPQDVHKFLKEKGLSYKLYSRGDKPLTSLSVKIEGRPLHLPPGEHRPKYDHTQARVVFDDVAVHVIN
Assay: Tyrosinase Assay
Conditions: 30 °C
From the text: Mushroom tyrosinase using either L-DOPA or L-tyrosine as substrate. In spectrophotometric experiments, enzyme activity was monitored by dopachrome formation at 475 nm with a UV-Vis spectrophotometer (Spectro UV-Vis Double beam; UVD-3500, Labomed, Inc.) at 30 C.

IC50	Ki [µM]	SMILES
> 300 µM	–	CC(C)=CCc1c(-c2ccc(O)cc2O)oc2c3c(cc(O)c2c1=O)OC(C)(C)C=C3 [Morusin, 3]
135 µM and > 300 µM	80.5	CC(C)=CCc1c(-c2ccc(O)cc2O)oc2c(CC=C(C)C)c(O)cc(O)c2c1=O

Second part, the compound before the results:

SMILES	IC50	Ki [µM]
C/C(=C\Cc1c(-c2ccc(O)cc2O)oc2c3c(cc(O)c2c1=O)OC(C)(CO)C=C3)CO (stereo not drawn) [Mormin, 1]	87.8 µM and 215 µM	49.2
CC(C)=CC1Oc2cc(O)ccc2-c2oc3c4c(cc(O)c3c(=O)c21)OC(C)(C)C=C4 (stereo not drawn) [Cycolmorusin, 2]	91.6 µM and 161 µM	46.4
O=c1cc(-c2ccc(O)cc2O)oc2cc(O)cc(O)c12 [Norartocarpetin, 5]	–	0.61

— BindingDB's records for doi:10.1080/14756360701810207 (Gyeongsang National University, 2008)
